{
  "source": "ChEMBL document CHEMBL5465560",
  "about": "“Selectivity Literature for EUbOPEN Chemogenomic Library” (2024)",
  "key": {"[1]": {"biological_target": "T1, Ephrin type-B receptor 2 (Homo sapiens) (UniProt P29323)", "T1 sequence (whole entry)": "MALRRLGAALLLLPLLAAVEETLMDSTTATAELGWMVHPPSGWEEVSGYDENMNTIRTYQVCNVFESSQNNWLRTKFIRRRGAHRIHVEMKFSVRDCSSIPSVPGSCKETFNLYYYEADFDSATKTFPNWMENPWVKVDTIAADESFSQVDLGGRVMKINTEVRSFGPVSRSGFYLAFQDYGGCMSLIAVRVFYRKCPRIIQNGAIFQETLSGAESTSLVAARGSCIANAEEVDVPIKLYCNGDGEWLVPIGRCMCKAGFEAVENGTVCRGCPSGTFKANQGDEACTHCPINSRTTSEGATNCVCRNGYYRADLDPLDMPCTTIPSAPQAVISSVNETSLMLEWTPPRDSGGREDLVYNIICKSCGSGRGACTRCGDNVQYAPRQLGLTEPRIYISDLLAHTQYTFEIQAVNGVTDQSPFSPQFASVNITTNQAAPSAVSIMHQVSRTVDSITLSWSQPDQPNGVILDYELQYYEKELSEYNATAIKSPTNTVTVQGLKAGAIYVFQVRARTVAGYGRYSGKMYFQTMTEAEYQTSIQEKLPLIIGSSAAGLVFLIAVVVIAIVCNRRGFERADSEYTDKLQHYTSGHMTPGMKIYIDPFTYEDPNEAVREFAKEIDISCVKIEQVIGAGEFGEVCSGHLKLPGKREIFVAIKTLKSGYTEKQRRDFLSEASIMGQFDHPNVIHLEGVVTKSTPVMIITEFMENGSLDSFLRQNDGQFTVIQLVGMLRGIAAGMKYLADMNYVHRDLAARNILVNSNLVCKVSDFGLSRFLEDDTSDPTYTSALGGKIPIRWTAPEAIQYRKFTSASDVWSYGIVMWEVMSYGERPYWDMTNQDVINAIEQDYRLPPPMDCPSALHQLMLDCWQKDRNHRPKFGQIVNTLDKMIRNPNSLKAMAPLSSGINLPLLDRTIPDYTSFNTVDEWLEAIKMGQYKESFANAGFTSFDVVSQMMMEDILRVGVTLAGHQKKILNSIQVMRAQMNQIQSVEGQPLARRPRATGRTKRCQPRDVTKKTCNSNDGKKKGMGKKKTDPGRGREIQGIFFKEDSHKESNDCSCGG", "test": "Selectivity interaction (Millipore kinase profiler) EUB0000124b EPHB2", "conditions": "at 10 µM"}, "[2]": {"biological_target": "Protein-tyrosine kinase 6 (Homo sapiens, UniProt Q13882)", "sequence (Q13882 whole entry)": "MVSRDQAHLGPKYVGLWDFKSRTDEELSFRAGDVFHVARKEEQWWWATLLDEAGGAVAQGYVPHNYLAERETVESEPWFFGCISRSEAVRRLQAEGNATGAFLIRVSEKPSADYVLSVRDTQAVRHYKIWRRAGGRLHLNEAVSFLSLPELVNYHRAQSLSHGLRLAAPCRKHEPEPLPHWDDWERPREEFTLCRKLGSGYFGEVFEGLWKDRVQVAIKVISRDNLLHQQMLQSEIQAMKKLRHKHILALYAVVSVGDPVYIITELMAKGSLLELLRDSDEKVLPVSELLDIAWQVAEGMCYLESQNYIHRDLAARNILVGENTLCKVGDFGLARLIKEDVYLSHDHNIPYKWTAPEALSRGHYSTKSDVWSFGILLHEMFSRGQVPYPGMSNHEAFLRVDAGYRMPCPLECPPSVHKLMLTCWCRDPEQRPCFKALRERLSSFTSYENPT", "test": "Selectivity interaction (KinaseProfiler screening (Millipore, enzymatic assay)) EUB0000601a PTK6"}, "[3]": {"biological_target": "T2, cGMP-dependent protein kinase 2 (Homo sapiens) (UniProt Q13237)", "T2 sequence (whole entry)": "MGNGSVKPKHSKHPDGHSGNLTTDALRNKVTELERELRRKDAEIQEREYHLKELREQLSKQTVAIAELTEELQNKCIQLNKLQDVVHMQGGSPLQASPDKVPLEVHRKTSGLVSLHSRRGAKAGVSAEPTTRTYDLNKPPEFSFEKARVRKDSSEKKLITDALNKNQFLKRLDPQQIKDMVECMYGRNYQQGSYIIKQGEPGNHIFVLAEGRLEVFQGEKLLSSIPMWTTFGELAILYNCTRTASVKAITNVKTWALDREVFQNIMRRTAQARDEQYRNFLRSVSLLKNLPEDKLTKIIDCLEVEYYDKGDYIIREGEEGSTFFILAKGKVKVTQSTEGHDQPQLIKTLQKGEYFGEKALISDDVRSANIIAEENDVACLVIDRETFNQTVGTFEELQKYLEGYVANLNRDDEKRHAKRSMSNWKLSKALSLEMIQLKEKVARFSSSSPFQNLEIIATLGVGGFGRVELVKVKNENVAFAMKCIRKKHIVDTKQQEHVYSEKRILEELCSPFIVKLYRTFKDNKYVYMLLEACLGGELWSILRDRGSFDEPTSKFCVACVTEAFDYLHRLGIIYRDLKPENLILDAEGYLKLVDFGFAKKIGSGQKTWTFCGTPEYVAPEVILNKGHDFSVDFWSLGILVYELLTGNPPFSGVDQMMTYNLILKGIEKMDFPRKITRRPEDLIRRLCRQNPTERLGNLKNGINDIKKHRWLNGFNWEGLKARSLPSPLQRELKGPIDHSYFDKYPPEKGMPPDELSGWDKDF", "test": "Selectivity interaction (KinomeScan (DiscoverX)) EUB0000092b PRKG2", "conditions": "at 10 µM"}, "[4]": {"biological_target": "T3, Serine/threonine-protein kinase DCLK1 (Homo sapiens) (UniProt O15075)", "T3 sequence (whole entry)": "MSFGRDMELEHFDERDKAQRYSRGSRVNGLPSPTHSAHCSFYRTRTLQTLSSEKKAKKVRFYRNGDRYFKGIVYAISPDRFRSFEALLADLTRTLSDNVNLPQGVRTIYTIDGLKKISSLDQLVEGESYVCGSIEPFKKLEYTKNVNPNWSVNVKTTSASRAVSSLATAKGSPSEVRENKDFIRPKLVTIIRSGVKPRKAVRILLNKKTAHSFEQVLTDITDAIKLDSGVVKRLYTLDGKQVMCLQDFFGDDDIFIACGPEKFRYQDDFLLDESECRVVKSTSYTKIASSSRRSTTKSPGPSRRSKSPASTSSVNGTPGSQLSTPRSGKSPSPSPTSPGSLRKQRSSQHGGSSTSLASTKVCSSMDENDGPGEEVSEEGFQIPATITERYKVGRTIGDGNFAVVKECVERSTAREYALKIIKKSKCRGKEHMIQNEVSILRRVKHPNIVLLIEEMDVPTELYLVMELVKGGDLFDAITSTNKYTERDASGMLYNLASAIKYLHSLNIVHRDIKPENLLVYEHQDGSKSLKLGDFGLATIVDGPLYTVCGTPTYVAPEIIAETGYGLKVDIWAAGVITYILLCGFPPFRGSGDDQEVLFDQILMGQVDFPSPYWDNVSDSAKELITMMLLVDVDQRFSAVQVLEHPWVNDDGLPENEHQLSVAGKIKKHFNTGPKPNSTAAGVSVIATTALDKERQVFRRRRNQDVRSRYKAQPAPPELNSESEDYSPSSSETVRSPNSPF", "test": "Selectivity interaction (KinomeScan (DiscoverX)) EUB0000045b DCLK1"}},
  "data": [
    {"smiles": "CC(=O)Nc1cccc(-n2c(=O)n(C3CC3)c(=O)c3c(Nc4ccc(I)cc4F)n(C)c(=O)c(C)c32)c1", "values": [
      {"measurement": "% of control", "setting": "[1]", "value": 107, "unit": "%"}
    ]},
    {"smiles": "CCc1cc(Nc2nccc(-c3c(-c4ccc(OC)c(C(=O)Nc5c(F)cccc5F)c4)nc4ccccn34)n2)c(OC)cc1N1CCC(N2CCN(S(C)(=O)=O)CC2)CC1", "values": [
      {"measurement": "IC50", "setting": "[2]", "value": 0.357, "unit": "µM"}
    ]},
    {"smiles": "CCC(=O)N1CCN(c2ccc(-n3c(=O)ccc4cnc5ccc(-c6cnc7ccccc7c6)cc5c43)cc2C(F)(F)F)CC1", "values": [
      {"measurement": "% of control", "setting": "[3]", "value": 78, "unit": "%"}
    ]},
    {"smiles": "C=CC(=O)Nc1cc(-n2c(=O)ccc3cnc4ccc(-c5ccc(NS(C)(=O)=O)cc5)cc4c32)ccc1C", "values": [
      {"measurement": "% of control", "setting": "[4]; at 1 µM", "value": 100, "unit": "%"},
      {"measurement": "% of control", "setting": "[4]; at 10 µM", "value": 84, "unit": "%"}
    ]}
  ]
}
